Key:
[1] = target: T1, His-tagged human recombinant kinase full-length Akt1 (Homo sapiens, UniProt P31749); test: Akt1 kinase assay (TR-FRET); type: biochemical; details: 10 μM ATP, 60 min at 22° C., read-out: Akt1, median IC50
T1 construct: His-tagged human recombinant kinase full-length Akt1; His; purchased Invitrogen PV 3599; host or cells: insect cells
Text: Akt1 inhibitory activity of compounds of the present invention was quantified employing the Akt1 TR-FRET assay as described in the following paragraphs.
(§1) His-tagged human recombinant kinase full-length Akt1 expressed in insect cells was purchased form Invitrogen (part number PV 3599). As substrate for the kinase reaction the biotinylated peptide biotin-Ahx-KKLNRTLSFAEPG (C-terminus in amide form) was used which can be purchased e.g. from the company Biosynthan GmbH (Berlin-Buch, Germany).
(§2) For the assay 50 nl of a 100 fold concentrated solution of the test compound in DMSO was pipetted into a black low volume 384well microtiter plate (Greiner Bio-One, Frickenhausen, Germany), 2 μl of a solution of Akt1 in assay buffer [50 mM TRIS/HCl pH 7.5, 5 mM MgCl2, 1 mM dithiothreitol, 0.02% (v/v) Triton X-100 (Sigma)] were added and the mixture was incubated for 15 min at 22° C. to allow pre-binding of the test compounds to the enzyme before the start of the kinase reaction. Then the kinase reaction was started by the addition of 3 μl of a solution of adenosine-tri-phosphate (ATP, 16.7 μM=>final conc. in the 5 μl assay volume is 10 μM) and substrate (1.67 μM=>final conc. in the 5 μl assay volume is 1 μM) in assay buffer and the resulting mixture was incubated for a reaction time of 60 min at 22° C. The concentration of Akt1 in the assay was adjusted depending of the activity of the enzyme lot and was chosen appropriate to have the assay in the linear range, typical enzyme concentrations were in the range of about 0.05 ng/μl (final conc. in the 5 μl assay volume).
The reaction was stopped by the addition of 5 μl of a solution of HTRF detection reagents (200 nM streptavidine-XL665 [Cisbio] and 1.5 nM anti-phosho-Serine antibody [Millipore, cat. #35-001] and 0.75 nM LANCE Eu-W 1024 labeled anti-mouse IgG antibody [Perkin Elmer]) in an aqueous EDTA-solution (100 mM EDTA, 0.1% (w/v) bovine serum albumin in 50 mM HEPES/NaOH pH 7.5). The resulting mixture was incubated 1 h at 22° C. to allow the binding of the biotinylated phosphorylated peptide to the streptavidine-XL665 and the antibodies. Subsequently the amount of phosphorylated substrate was evaluated by measurement of the resonance energy transfer from the anti-mouse-IgG-Eu-Chelate to the streptavidine-XL665. Therefore, the fluorescence emissions at 620 nm and 665 nm after excitation at 350 nm was measured in a HTRF reader, e.g. a Rubystar (BMG Labtechnologies, Offenburg, Germany) or a Viewlux (Perkin-Elmer). The ratio of the emissions at 665 nm and at […] was taken as the measure for the amount of phosphorylated substrate. The data were normalised (enzyme reaction without inhibitor=0% inhibition, all other assay components but no enzyme=100% inhibition).

[2] = target: T2, His-tagged human recombinant kinase full-length Akt2 (Homo sapiens, UniProt P31751); test: Akt2 kinase assay (TR-FRET); type: biochemical; details: 10 μM ATP, 60 min at 22° C., read-out: Akt2, median IC50
T2 construct: His-tagged human recombinant kinase full-length Akt2; His; purchased Invitrogen PV 3975; host or cells: insect cells
Text: Akt2 inhibitory activity of compounds of the present invention was quantified employing the Akt2 TR-FRET assay as described in the following paragraphs.
as §1, with “Akt2” for “Akt1”, “cells and activated by PDK1” for “cells”, “3975).” for “3599).”
as §2, with “Akt2” for “Akt1”, “0.2” for “0.05”
The reaction was stopped by the addition of 5 μl of a solution of HTRF detection reagents (200 nM streptavidine-XL665 [Cisbio] and 1.5 nM anti-phosho-Serine antibody [Millipore, cat. #35-001] and 0.75 nM LANCE Eu-W 1024 labeled anti-mouse IgG antibody [Perkin Elmer]) in an aqueous EDTA-solution (100 mM EDTA, 0.1% (w/v) bovine serum albumin in 50 mM HEPES/NaOH pH 7.5).
The resulting mixture was incubated 1 h at 22° C. to allow the binding of the biotinylated phosphorylated peptide to the streptavidine-XL665 and the antibodies.
Subsequently the amount of phosphorylated substrate was evaluated by measurement of the resonance energy transfer from the anti-mouse-IgG-Eu-Chelate to the streptavidine-XL665. Therefore, the fluorescence emissions at 620 nm and 665 nm after excitation at 350 nm was measured in a TR-FRET reader, e.g. a Rubystar (BMG Labtechnologies, Offenburg, Germany) or a Viewlux (Perkin-Elmer). The ratio of the emissions at 665 nm and at […] was taken as the measure for the amount of phosphorylated substrate. The data were normalised (enzyme reaction without inhibitor=0% inhibition, all other assay components but no enzyme=100% inhibition).

[3] = test system: KPL-4 breast cancer cell line; test: Tumor cell proliferation assay (CellTiter-Glo); type: cell-based; details: KPL4, 72 h drug exposure
Experimental: Compounds were tested in a cell-based assay that measures the capacity of the compounds to inhibit tumour cell proliferation following a 72 h drug exposure. Cell viability is determined using CellTiter-Glow® (CTG, Promega, cat #G7571/2/3). The CellTiter-Glo® Luminescent Cell Viability Assay is a homogeneous method to determine the number of viable cells in culture. Detection is based on using the luciferase reaction to measure the amount of ATP from viable cells. The amount of ATP in cells correlates with cell viability. Within minutes after a loss of membrane integrity, cells lose the ability to synthesize ATP, and endogenous ATPases destroy any remaining ATP; thus the levels of ATP fall precipitously.
Cells were plated at 3000-5000 cells/well (depending on the cell lines) in 90 μL growth medium on MTPs (Corning; #3603, black plate, clear flat bottom). For each cell line assayed, cells were plated onto a separate plate for determination of […] at t=0 hour and t=72 hour time points. Following overnight incubation at 37° C., chemiluminescence values for the t=0 samples were determined after adding 10 μl medium and 100 μl CTG solution according to manufacture protocol. Plates for the t=72 hour time points were treated with compounds diluted into growth medium at ten times final concentration added in 10 μL to the cell culture plate. Cells were then incubated for 72 hours at 37° C. Chemiluminescence values for the t=72 hour samples were determined. […] Experiments were controlled using a reference compound as standard.

T1 sequence (P31749 whole entry): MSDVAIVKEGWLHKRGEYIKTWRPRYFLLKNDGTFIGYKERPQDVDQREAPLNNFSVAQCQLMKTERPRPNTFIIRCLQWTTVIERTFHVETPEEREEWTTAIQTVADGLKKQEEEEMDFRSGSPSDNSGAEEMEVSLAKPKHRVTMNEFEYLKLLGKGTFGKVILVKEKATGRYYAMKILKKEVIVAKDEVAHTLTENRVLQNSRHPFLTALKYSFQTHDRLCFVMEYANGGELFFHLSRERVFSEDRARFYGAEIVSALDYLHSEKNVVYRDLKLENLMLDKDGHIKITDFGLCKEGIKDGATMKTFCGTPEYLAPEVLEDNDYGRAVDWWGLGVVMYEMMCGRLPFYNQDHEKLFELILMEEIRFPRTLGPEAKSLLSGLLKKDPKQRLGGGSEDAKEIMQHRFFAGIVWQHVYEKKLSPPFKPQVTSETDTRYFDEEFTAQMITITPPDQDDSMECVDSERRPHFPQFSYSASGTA
T2 sequence (P31751 whole entry): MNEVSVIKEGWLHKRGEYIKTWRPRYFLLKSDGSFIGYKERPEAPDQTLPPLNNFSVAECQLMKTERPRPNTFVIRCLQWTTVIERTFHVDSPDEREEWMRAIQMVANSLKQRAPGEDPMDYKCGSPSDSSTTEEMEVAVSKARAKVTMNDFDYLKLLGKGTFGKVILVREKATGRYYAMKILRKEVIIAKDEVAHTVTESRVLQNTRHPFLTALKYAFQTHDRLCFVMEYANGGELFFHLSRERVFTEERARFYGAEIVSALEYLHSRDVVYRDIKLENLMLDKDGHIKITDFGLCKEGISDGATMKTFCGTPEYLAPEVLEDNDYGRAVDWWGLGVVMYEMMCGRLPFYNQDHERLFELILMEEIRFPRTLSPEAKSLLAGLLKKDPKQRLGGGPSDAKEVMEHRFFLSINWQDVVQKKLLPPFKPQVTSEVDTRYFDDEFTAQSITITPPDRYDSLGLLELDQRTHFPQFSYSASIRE

IC50 [1] [nM] | IC50 [2] [nM] | IC50 [3] [nM] | Structure (SMILES)
755 | 408 | 1410 | NC1(c2ccc(-c3nc4nc(C5CC5)nn4cc3-c3ccccc3)cc2)CCC1 [Example 1-4, 1-[4-(2-cyclopropyl-6-phenyl-[1,2,4]triazolo[1,5-a]pyrimidin-5-yl)-phenyl]-cyclobutylamine]
– | 540 | 3620 | Cc1cn2c(NC3CC3)c(-c3ccccc3)c(-c3ccc(C4(N)CCC4)cc3)nc2n1 [Example 2-5, {7-[4-(1-Amino-cyclobutyl)-phenyl]-2-methyl-6-phenyl-imidazo[1,2-a]pyrimidin-5-yl)-cyclopropylamine]
1130 | 61 | 1740 | CC(C)(C)Nc1c(-c2ccccc2)c(-c2ccc(C3(N)CCC3)cc2)nc2nc(-c3ccccn3)nn12 [Example 3-0, {5-[4-(1-Aminocyclobutyl)-phenyl]-6-phenyl-2-pyridine-2-yl-[1,2,4]triazolo[1,5-a]pyrimidin-7-yl}-tert.-butylamine]
1830 | 877 | – | COCCNc1nc2nc(-c3ccc(C4(N)CCC4)cc3)c(-c3ccccc3)cn2n1 [Example 5-0, {5-[4-(1-Amino-cyclobutyl)-phenyl]-6-phenyl-[1,2,4]triazolo[1,5-a]pyrimidin-2-yl}-(2-methoxy-ethyl)-amine]
958 | 502 | – | CCNc1nc2nc(-c3ccc(C4(N)CCC4)cc3)c(-c3ccccc3)cn2n1 [Example 5-1, {5-[4-(1-amino-cyclobutyl)-phenyl]-6-phenyl-[1,2,4]triazolo[1,5-a]pyrimidin-2-yl}-ethyl-amine]
527 | 381 | 2170 | CNc1nc2nc(-c3ccc(C4(N)CCC4)cc3)c(-c3ccccc3)cn2n1 [Example 5-3, {5-[4-(1-amino-cyclobutyl)-phenyl]-6-phenyl-[1,2,4]triazolo[1,5-a]pyrimidin-2-yl}-methyl-amine]
5650 | 2550 | – | NC1(c2ccc(-c3nc4nc(NCc5ccncc5)nn4cc3-c3ccccc3)cc2)CCC1 [Example 5-6, {5-[4-(1-amino-cyclobutyl)-phenyl]-6-phenyl-[1,2,4]triazolo[1,5-a]pyrimidin-2-yl}-pyridin-4-ylmethyl-amine]
672 | 549 | – | Cc1nc2nc(-c3ccc(C4(N)CCC4)cc3)c(-c3ccccc3)c(NC(C)C)n2n1 [Example 5-7, {5-[4-(1-amino-cyclobutyl)-phenyl]-2-methyl-6-phenyl-[1,2,4]triazolo[1,5-a]pyrimidin-7-yl}-isopropyl-amine]
854 | 541 | – | Cc1nc2nc(-c3ccc(C4(N)CCC4)cc3)c(-c3ccccc3)c(NCC3CC3)n2n1 [Example 5-9, {5-[4-(1-amino-cyclobutyl)-phenyl]-2-methyl-6-phenyl-[1,2,4]triazolo[1,5-a]pyrimidin-7-yl}-cyclopropylmethyl-amine]
930 | 982 | – | CNc1c(-c2ccccc2)c(-c2ccc(C3(N)CCC3)cc2)nc2nc(C3CC3)nn12 [Example 5-10, {5-[4-(1-amino-cyclobutyl)-phenyl]-2-cyclopropyl-6-phenyl-[1,2,4]triazolo[1,5-a]pyrimidin-7-yl}-methyl-amine]
1730 | 1120 | – | CCNc1c(-c2ccccc2)c(-c2ccc(C3(N)CCC3)cc2)nc2nc(C)nn12 [Example 5-11, {5-[4-(1-amino-cyclobutyl)-phenyl]-2-methyl-6-phenyl-[1,2,4]triazolo[1,5-a]pyrimidin-7-yl}-ethyl-amine]
1850 | 904 | – | Cc1nc2nc(-c3ccc(C4(N)CCC4)cc3)c(-c3ccccc3)c(NC3CC3)n2n1 [Example 5-12, {5-[4-(1-amino-cyclobutyl)-phenyl]-2-methyl-6-phenyl-[1,2,4]triazolo[1,5-a]pyrimidin-7-yl}-cyclopropyl-amine]
2240 | 2240 | – | CNc1c(-c2ccccc2)c(-c2ccc(C3(N)CCC3)cc2)nc2nc(C)nn12 [Example 5-13, {5-[4-(1-amino-cyclobutyl)-phenyl]-2-methyl-6-phenyl-[1,2,4]triazolo[1,5-a]pyrimidin-7-yl}-methyl-amine]
3250 | 2320 | – | COCCNc1c(-c2ccccc2)c(-c2ccc(C3(N)CCC3)cc2)nc2nc(C)nn12 [Example 5-14, {5-[4-(1-amino-cyclobutyl)-phenyl]-2-methyl-6-phenyl-[1,2,4]triazolo[1,5-a]pyrimidin-7-yl}-(2-methoxy-ethyl)-amine]
11600 | 936 | – | NC1(c2ccc(-c3nc4nc(C5CC5)nn4c(N[C@H]4CC[C@H](O)CC4)c3-c3ccccc3)cc2)CCC1 [Example 5-15, 4-{5-[4-(1-amino-cyclobutyl)-phenyl]-2-cyclopropyl-6-phenyl-[1,2,4]triazolo[1,5-a]pyrimidin-7-ylamino}-cyclohexanol]
